The values below come from US4582824A, “Method for inhibiting activities of platelet activating factor” (Takeda Chemical Industries, Ltd., priority 1983, dated 1986).

One may read the inhibition as the share of the control response that was lost under treatment.

The experiment relates to PAF-induced platelet aggregation (washed PRP). The experiment is described as follows: Activity to inhibit PAF in platelet aggregation (washed PRP). The format is cell-based, rabbit. To be noted: Oryctolagus cuniculus, test compound 3×10^-5 M, PAF 3×10^-7 M, 37° C., read-out: Inhibition rate. The method, then: Using an injection syringe containing a 3.15% solution of citric acid (in a ratio of 1 part per 9 parts of blood) as an anticoagulant, the blood was directly collected from a male rabbit. Then, at room temperature, the blood was centrifuged at 1,000 r.p.m. for 10 minutes to harvest a platelet rich plasma (PRP). This PRP was further centrifuged at 1,400 r.p.m. for 15 minutes to give a platelet pellet. The pellet was suspended in Ca^++ -free Tyrode solution (containing 0.25% of gelatin) to give a washed PRP. This washed PRP (250 μl) was stirred at 37° C. for 2 minutes, then 25 μl of a 0.2 to 0.5 mM Ca^++ solution was added, and the mixture was further stirred for 30 seconds. Then, the test compound was added to the above platelet preparation to a level of 3×10^-5 M. After stirring the mixture for 2 minutes, 3×10^-7 M of PAF was added. The degree of platelet aggregation was determined with a platelet aggregometer (Rika Denki). The activity of the test compound was estimated from the inhibition rate as compared with the maximum optical transmission (maximum aggregation) of control PRP by PAF.
In the case of `CCCCCCCCCCCCCCCCCNC(=O)OCC(COP(=O)([O-])OCC[n+]1ccsc1)OC` (stereo not shown) [Production Example 12, 2-methoxy-3-heptadecylcarbamoyloxypropyl 2-thiazolioethyl phosphate], the inhibition at 30 µM was 100%.
The figure for `CCCCCCCCCCCCCCCCCCNC(=O)OCC(COP(=O)([O-])OCC[n+]1ccc2ccccc2c1)OC` (stereo not shown) [Production Example 5, 3-(N-Octadecylcarbamoyloxy)-2-methoxypropyl 2-isoquinolinioethyl phosphate] is 37%.
The same measure for `CCCCCCCCCCCCCCCCCCNC(=O)OCC(COP(=O)([O-])OCC[n+]1csc(CCO)c1C)OC` (stereo not shown) [Production Example 4, 3-(N-octadecylcarbamoyloxy)-2-methoxypropyl 2-(4-methyl-5-hydroxyethyl)thiazolioethyl phosphate]: 33%.
The same measure for `CCCCCCCCCCCCCCCCCCCCCCNC(=O)OCC(COP(=O)([O-])OCC[n+]1ccsc1)OC` (stereo not shown) [Production Example 8, 3-(N-Docosylcarbamoyloxy)-2-methoxypropyl 2-thiazolioethyl phosphate]: 24%.
Turning to `CCCCCCCCCCCCCCCCCCNC(=O)OCC(COP(=O)([O-])OCC[n+]1ccccc1)OCc1ccccc1` (stereo not shown) [Production Example 7, 3-(N-Octadecylcarbamoyloxy)-2-benzyloxypropyl 2-pyridinioethyl phosphate], the inhibition at 30 µM came out at 19%.
The same measure for `CCCCCCCCCCCCCCCCCCNC(=O)OCC(COP(=O)([O-])OCC[n+]1ccccc1)OC` (stereo not shown) [Production Example 1, 3-(N-Octadecylcarbamoyloxy)-2-methoxypropyl 2-pyridinioethyl phosphate]: 95%; for `CCCCCCCCCCCCCCCCCCNC(=O)OCC(COP(=O)([O-])OCC[n+]1ccsc1)OCc1ccccc1` (stereo not shown) [Production Example 6, 3-(N-Octadecylcarbamoyloxy)-2-benzyloxypropyl 2-thiazolioethyl phosphate]: 79%; for `CCCCCCCCCCCCCCCNC(=O)OCC(COP(=O)([O-])OCC[n+]1ccsc1)OC` (stereo not shown) [Production Example 10, 2-Methoxy-3-pentadecylcarbamoyloxypropyl 2-thiazolioethyl phosphate]: 100%.
Consider `CCCCCCCCCCNC(=O)OCC(COP(=O)([O-])OCC[n+]1ccsc1)OC` (stereo not shown) [Production Example 3, 3-(N-Decylcarbamoyloxy)-2-methoxypropyl 2-thiazolioethyl phosphate], for which the inhibition at 30 µM was determined as 12%.
As to `CCCCCCCCCCCCCCCCNC(=O)OCC(COP(=O)([O-])OCC[n+]1ccsc1)OC` (stereo not shown) [Production Example 11, 2-Methoxy-3-hexadecylcarbamoyloxypropyl 2-thiazolioethyl phosphate], the inhibition at 30 µM came to 100%.
